Reference: patent EP2711367A1, “New spiroepoxide tetrahydrobenzo-triazoles and -imidazoles and their use as MetAP-II inhibitors” (Deutsches Krebsforschungszentrum, priority 2012, dated 2014)
Where two headings read alike, the source gives them in different places.

Experiments:
[1] = target: E. coli MetAP (Escherichia coli, UniProt P0AE18); assay: MetAP inhibitory activity, Met-Gly-Met-Met substrate, HPLC detection of Gly-Met-Met; assay type: biochemical; settings: for inhibition at 25 µM: read-out: E. Coli % inhibition; for E. Coli % inhibition: single concentration: inhibitor 25 µM, enzyme 50 nM, 20 minutes substrate incubation at 37 °C
Sequence of E. coli MetAP (P0AE18 whole entry): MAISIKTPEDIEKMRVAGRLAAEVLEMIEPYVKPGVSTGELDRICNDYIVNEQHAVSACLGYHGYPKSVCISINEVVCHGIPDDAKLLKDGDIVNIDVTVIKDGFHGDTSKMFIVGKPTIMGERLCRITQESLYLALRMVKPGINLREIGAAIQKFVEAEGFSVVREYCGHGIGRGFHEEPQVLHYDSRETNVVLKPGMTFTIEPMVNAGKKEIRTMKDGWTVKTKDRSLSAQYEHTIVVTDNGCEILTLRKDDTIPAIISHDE
Description: (§1) The below protocol describes the measurement of the inhibitory activity of the compounds of the present invention by using E. coli MetAP, hsMetAP-I, and hsMetAP-II.
(§2) Inhibition activity of compounds was studied using the tetrapeptide substrate Met-Gly-Met-Met (Bachem) followed by HPLC analysis of the product Gly-Met-Met. The assay was performed in 96 well plates (Greiner) at a total reaction volume of 100 µl. […] A positive control with DMSO solution instead of inhibitor at the corresponding concentration was prepared. Then the substrate Met-Gly-Met-Met was added to a final concentration of 400 µM. After an incubation period of 15 minutes (HsMetAP-I), 20 minutes (EcMetAP) or 60 minutes (HsMetAP-II) at 37 °C, the enzyme reaction was stopped by adding 10 µl 4 % trifluoroacetic acid. The plate was centrifuged at 1000 x g for 10 minutes.
(§3) Detection of the product Gly-Met-Met was performed by HPLC (Jasco), and typically using the following, or equivalent conditions: C18 column (Dr. Maisch, ReproSil-Pur® 120 ODS-3, 3 µm, 50 x 2 mm). 80 µl of sample were applied on the column and eluted with mobile phase A (water and 0.1 % trifluoroacetic acid, filtered, degassed) and B (acetonitrile and 0.1 % trifluoroacetic acid, degassed) over 8 minutes.
(§4) Percentage inhibition was calculated as the relation of Gly-Met-Met amount resulting in inhibited and uninhibited enzyme reaction (positive control). […] The values were determined in relation to positive controls with equal DMSO contents. The inhibition values for the varying concentrations of inhibitor were then fitted to a logarithmic dose-response curve and the IC50 values were calculated from the equation thus obtained.

[2] = target: hsMetAP-I (Homo sapiens, UniProt P53582); assay: as above; assay type: biochemical, hs; settings: for inhibition at 25 µM: read-out: hsMetAP-I % inhibition
Description: as §1, §2, §3, §4

[3] = target: hsMetAP-II (Homo sapiens, UniProt P50579); assay: as above; assay type: biochemical, hs
Sequence of hsMetAP-II (P50579 whole entry): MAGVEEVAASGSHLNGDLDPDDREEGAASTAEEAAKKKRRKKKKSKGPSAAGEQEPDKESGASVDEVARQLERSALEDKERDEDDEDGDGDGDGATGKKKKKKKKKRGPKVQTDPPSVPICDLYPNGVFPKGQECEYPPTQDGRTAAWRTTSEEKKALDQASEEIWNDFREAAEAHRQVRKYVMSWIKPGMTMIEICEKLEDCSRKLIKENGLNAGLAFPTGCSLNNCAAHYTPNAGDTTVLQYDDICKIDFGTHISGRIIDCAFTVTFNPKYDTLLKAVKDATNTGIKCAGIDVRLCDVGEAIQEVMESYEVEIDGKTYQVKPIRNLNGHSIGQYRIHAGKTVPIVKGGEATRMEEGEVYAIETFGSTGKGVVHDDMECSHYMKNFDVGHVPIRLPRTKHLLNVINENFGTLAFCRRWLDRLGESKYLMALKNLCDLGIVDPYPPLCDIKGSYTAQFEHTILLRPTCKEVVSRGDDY
Description: as §1
Inhibition activity of compounds was studied using the tetrapeptide substrate Met-Gly-Met-Met (Bachem) followed by HPLC analysis of the product Gly-Met-Met. The assay was performed in 96 well plates (Greiner) at a total reaction volume of 100 µl. […] Then the substrate Met-Gly-Met-Met was added to a final concentration of 400 µM. After an incubation period of 15 minutes (HsMetAP-I), 20 minutes (EcMetAP) or 60 minutes (HsMetAP-II) at 37 °C, the enzyme reaction was stopped by adding 10 µl 4 % trifluoroacetic acid. The plate was centrifuged at 1000 x g for 10 minutes.
as §3, §4

[4] = system: human umbilical vein endothelial cells (HUVEC); assay: HUVEC growth arrest, crystal violet staining; assay type: cell-based; settings: growth over 10 days, 0-100 µM, OD at 595 nm, read-out: HUVEC IC50
Text: For the measurement of the HUVEC growth arrest (Example 19) and the used materials and equipment were:
• Cells: Primary human umbilical vein cells (HUVEC) were obtained from GIBCO (Cat. C-015-5C). • Cell culture medium: Medium 200 supplemented with LSGS (Gibco, Cat. M-200-500). • Trypsin/EDTA (Gibco, Cat R-001-100) • Trypsin Neutralizer solution (Gibco, Cat R-002-100). • Crystal violet (Merck / Cat. no. 1408) • Ethanol (Riedel-de-Haen / Cat. no. 32205) • Acetic acid (Riedel-de-Haen / Cat. no. 33209) • Culture flasks: Coming, 430168 • 96 well plates: Greiner, 655 101
• Microtiter pipettes: •Brand Transferpette-8, • Gilson Pipetman 20 and 200 Laminar air flow cabinet: Gelman, Celaire • ELISA reader: Thermo, Multiskan Ascent • Microscope: Leitz Diavert • Balance: Sartorius RC 210 D • CO2 incubator: Heraeus CO2-Auto-Zero • Centrifuge: Heraeus Biofuge primo • Cell counter: Assistent, Neubauer hematocytometer
Crystal violet solution: • Crystal violet (Merck) was dissolved in ethanol (PA quality, Roth) to a concentration of 10 %. The solution was diluted with ddH2O 1:20.
Test compounds: • Compounds of the present invention were dissolved at a concentration of 10 mM in DMSO (Roth, Cat. 47201). Stock solutions of test compounds were diluted 1:10 not earlier than 1 hour before the assay was made.
• 1. HUVEC cells were seeded in 96-well plates ([…]). • 2. 6 hours later test compounds were added in triplicates Concentrations of test compound: 0, 1.6, 3.2, 6.3, 12.5, 25, 50, 100 µM. Fresh medium and test compounds were added every 48 hr. • 3. One 96 well plate (t=0) with untreated cells was fixed at the same time point as treatment of cells with test compounds was initiated. • 4. Test plates were incubated for 10 days in a CO2 incubator. • 5. Fixation of cells: Wells were washed with 100 µL/well PBS. PBS was decanted and 100 µL of 3 % formaldehyde/well was added. After 5 min, formaldehyde was decanted and plates were dried upside down on blotting paper overnight at room temperature. • 6. Staining: 0.1 mL of crystal violet solution was added to each well with a 12-channel pipette. After incubation for 5 min at room temperature, the crystal violet solution was decanted and plates were washed 5 x by submersion in 3 L fresh water. • 7. After drying (plates were dried on blotting paper upside down overnight) 0.1 mL of ethanol/acetic acid (99:1) was added to each well and the optical density at 595 nm was determined in an ELISA reader.
The evaluation of the growth inhibitory activity was carried out as follows: • Definitions: Growth: Mean OD at t=10 d - mean OD at t=0. • Evaluation: Dose response curves were established by plotting growth against concentration of compounds using Microsoft Excel.

[5] = single concentration: inhibitor 25 µM, enzyme 50 nM, 15 minutes substrate incubation at 37 °C
[6] = hsMetAP-II IC50, enzyme 50 nM, 400 µM Met-Gly-Met-Met, 60 minutes at 37 °C
[7] = read-out: hsMetAP-II % inhibition, single concentration: inhibitor 25 µM, enzyme 50 nM, 60 minutes substrate incubation at 37 °C
[8] = single concentration: inhibitor 25 µM, enzyme 50 nM, 60 minutes substrate incubation at 37 °C
[9] = enzyme 50 nM, 400 µM Met-Gly-Met-Met, 60 minutes at 37 °C, read-out: hsMetAP-II IC50
[10] = single concentration: inhibitor 25 µM, enzyme 50 nM, 60 minutes substrate incubation at 37 °C, read-out: hsMetAP-II % inhibition

SMILES	inhibition at 25 µM [1]	hsMetAP-I % inhibition [2, 5]	E. Coli % inhibition [1]	inhibition at 25 µM [3, 10]	further results
COc1ccc(Cn2nnc3c2C2(CCC3OC(=O)NCC(N)=O)CO2)cc1 (centres unmarked) [UWU-XII-143-A]	12 ± 1%	Inactive	–	–	IC50 [3, 6]: 0.23 ± 0.02 µM; inhibition at 25 µM [3, 7]: 100%; IC50 ([4]; Homo sapiens, HUVEC, 240 h): 2.6 µM
COc1ccc(Cn2nnc3c2C2(CCC3OC(=O)Nc3ccccc3)CO2)cc1 (racemic) [UWU-XIII-005-A]	–	Inactive	Inactive	–	IC50 [3, 6]: 18 ± 5 µM; hsMetAP-II % inhibition [3, 8]: 44 ± 6%; IC50 [4]: 14.9 µM
CC(C)c1ccc(Cn2nnc3c2[C@]2(CC[C@H]3OC(=O)c3ccccc3)CO2)cc1 (racemic) [UWU-XII-036-A]	20 ± 8%	Inactive	–	–	IC50 [3]: 4.7 ± 0.3 µM; inhibition at 25 µM [3, 7]: 59 ± 5%
O=C1CCC2(CO2)c2c1nnn2Cc1ccc2ccccc2c1 (centres unmarked) [HHS-I-020-C]	24 ± 8%	Inactive	–	84.1 ± 3.2%	IC50 [3, 9]: 2.7 ± 0.1 µM
O=C(O[C@@H]1CC[C@]2(CO2)c2c1nnn2Cc1ccccc1)c1ccccc1 (racemic) [JL-III-147-A]	45 ± 7%	–	–	–	inhibition at 25 µM [2]: 15 ± 1%; IC50 [3]: 1.3 ± 0.01 µM; inhibition at 25 µM [3, 7]: 93.3 ± 2.1%
O=C1CCC2(CO2)c2c1nnn2Cc1ccc(Cl)cc1 (centres unmarked) [BK-I-184-A]	14 ± 5%	Inactive	–	100%	IC50 [3, 9]: 0.74 ± 0.03 µM; IC50 ([4]; Homo sapiens, HUVEC, 240 h): 7.4 µM
COc1ccc(Cn2nnc3c2[C@@]2(CC[C@H]3OC(=O)NC(C)C)CO2)cc1 (racemic) [UWU-XII-131-C]	–	Inactive	Inactive	–	IC50 ([4]; Homo sapiens, HUVEC, 240 h): 2.5 µM
Cc1ccccc1Cn1nnc2c1C1(CCC2=O)CO1 (centres unmarked) [BK-I-181-B]	–	Inactive	Inactive	100%	IC50 [3, 9]: 5.1 ± 2.9 µM
CCn1cnc2c1C1(CCC2=O)CO1 (centres unmarked) [JL-II-137-A]	–	Inactive	Inactive	–	hsMetAP-II % inhibition [3, 8]: Inactive
COc1ccc(Cn2nnc3c2C2(CCC3OC(=O)C=Cc3cc(OC)c(OC)c(OC)c3)CO2)cc1 (racemic) [UWU-XII-035-A]	–	Inactive	Inactive	–	inhibitory effect on MetAP-II (in words) [3]: good inhibitory effect; inhibition at 25 µM [3, 7]: 94 ± 4%; IC50 ([3]; read-out: hsMetAP-II IC50, enzyme 50 nM, 400 µM Met-Gly-Met-Met, 60 minutes at 37 °C): 0.5 ± 1 µM
CC(C)c1ccc(Cn2nnc3c2C2(CCC3=O)CO2)cc1 (centres unmarked) [JL-III-138-A]	50 ± 6%	–	–	84 ± 3%	inhibition at 25 µM [2, 5]: 16 ± 2%; IC50 [3, 9]: 5.5 ± 3 µM
CC(C)Cn1cnc2c1C1(CCC2=O)CO1 (centres unmarked) [JL-II-120-B]	–	Inactive	Inactive	12 ± 6%	–
COc1ccc(Cn2nnc3c2[C@@]2(CC[C@H]3OC(=O)/C=C/c3cc(OC)c(OC)c(OC)c3)CO2)cc1 (racemic) [UWU-II-035-C]	–	Inactive	Inactive	–	IC50 [3]: 2.02 ± 0.03 µM; inhibition at 25 µM [3, 7]: 85 ± 11%
Cn1cnc2c1C1(CCC2=O)CO1 (racemic) [JL-II-136-A]	–	Inactive	Inactive	–	hsMetAP-II % inhibition [3, 8]: Inactive
O=C(O[C@@H]1CC[C@]2(CO2)c2c1nnn2Cc1ccc2ccccc2c1)c1ccccc1 (racemic) [JL-III-132-C]	22 ± 7%	Inactive	–	–	IC50 [3]: 3.7 ± 0.3 µM; inhibition at 25 µM [3, 7]: 63 ± 5%
O=C(O[C@@H]1CC[C@@]2(CO2)c2c1nnn2Cc1ccccc1)c1ccccc1 (racemic) [JL-III-147-B]	36 ± 11%	Inactive	–	–	IC50 [3]: 19.1 ± 9 µM; inhibition at 25 µM [3, 7]: 59 ± 2%
CCCCCCCCn1nnc2c1C1(CCC2=O)CO1 (centres unmarked) [CJ-II-010]	14 ± 7%	–	–	50 ± 2%	inhibition at 25 µM [2, 5]: 12.1 ± 1.5%
CCCn1cnc2c1C1(CCC2=O)CO1 (racemic) [JL-II-116-A]	–	Inactive	Inactive	–	hsMetAP-II % inhibition [3, 8]: Inactive
CCn1nnc2c1C1(CCC2=O)CO1 (centres unmarked) [CJ-II-007]	22 ± 5%	Inactive	–	–	hsMetAP-II % inhibition [3, 8]: Inactive
O=C1CCC2(CO2)c2c1ncn2Cc1ccccc1 (centres unmarked) [JL-III-084-C]	–	Inactive	Inactive	24 ± 1%	–
O=C(O[C@@H]1CC[C@@]2(CO2)c2c1nnn2Cc1ccc2ccccc2c1)c1ccccc1 [JL-III-132-D]	–	Inactive	Inactive	15 ± 5%	–
O=C1CCC2(CO2)c2c1nnn2Cc1ccccc1 (centres unmarked) [HHS-I-027-B]	–	Inactive	Inactive	64.5 ± 0.1%	IC50 [3, 9]: 13.7 ± 3.4 µM
Cn1nnc2c1C1(CCC2=O)CO1 (racemic) [CJ-II-011]	20 ± 2%	–	–	–	inhibition at 25 µM [2, 5]: 14 ± 7%; hsMetAP-II % inhibition [3, 8]: Inactive
CC(C)CCn1cnc2c1C1(CCC2=O)CO1 (centres unmarked) [JL-II-115-A]	25 ± 8%	Inactive	–	–	hsMetAP-II % inhibition [3, 8]: Inactive
COc1ccc(Cn2nnc3c2[C@@]2(CC[C@@H]3OC(=O)NC(C)C)CO2)cc1 [(-)-UWU-XII-131-A]	–	Inactive	Inactive	–	IC50 ([4]; Homo sapiens, HUVEC, 240 h): 8.2 µM
COc1ccc(Cn2nnc3c2[C@]2(CC[C@H]3OC(=O)NC(C)C)CO2)cc1 (racemic) [UWU-XII-131-A]	–	Inactive	Inactive	–	IC50 ([4]; Homo sapiens, HUVEC, 240 h): 0.4 µM
